Data set [1] can be described thus: Solubility in water at 37° C. (excess powder, CoQ10 passing into solution by UV or HPLC). It is filed as physicochemical. Conditions: thermodynamic from solid. The method, then: The solubility in water at 37° C. (physiological temperature) of the composition according to the present invention was compared with that of the compositions in the examples of comparison.
Verification is carried out after 1 hour and 24 hours (balanced) using the suitable analytical method (for example UV or HPLC spectrophotometry) of the maximum quantity of coenzyme Q10 that passes into the solution.

For another data set, the system named is H9C2 cells. Kind of data set: Absorption in cardiomyoblasts: intracell penetration and penetration of the mitochondrial membrane, CoQ10 quantified by HPLC. Conditions: cultured cells after administration; FIG. 2. The class given is cell-based, rats. How it is done:
Despite the large number of clinical studies on the effects of Coenzyme Q10 supplementation, there are very few experimental data concerning the content of coenzyme Q10 in mitochondria and the cell energy condition after supplementation. Probably, controversial results of clinical and in vitro studies are mainly due to the bio-availability of the form of coenzyme Q10 used.
For this analysis, T67 cells of human astrocytoma and H9C2 cells from rats, deriving from the heart, were cultured in a Dulbecco's modified Eagle medium (DMEM), supplemented with 10% of fetal bovine serum (FBS), 100 Ul/ml of penicillin, 100 μg/ml of streptomycin and 40 μg/ml of gentamicin, in an atmosphere of 5% CO2 at 37° C., with saturation humidity. The vitality of the cells and their number were measured using the exclusion method with Tripan blue (Lowry et al.). The mitochondria were isolated using known procedures (Chomyn, 1996). The cells treated were washed carefully with PBS before the extraction procedures. The extraction of the coenzyme Q10 from the isolated cells and mitochondria was performed as described by Takada et al. (Takada et al., 1984). The quantification of the coenzyme Q10 was done by means of HPLC analysis. […]

Broadly, the solubility is how much of the substance goes into solution per volume. Read a low solubility as a poorly soluble substance.

Values after ≈ are worked out from the molar mass of the structure shown.

`COC1=C(OC)C(=O)C(C/C=C(\C)CC/C=C(\C)CC/C=C(\C)CC/C=C(\C)CC/C=C(\C)CC/C=C(\C)CC/C=C(\C)CC/C=C(\C)CC/C=C(\C)CCC=C(C)C)=C(C)C1=O` [CoQ10, ubidecarenone] gave a solubility at 1 h in data set [1] (after 1 hour) of 1 µg/mL (≈ 1.16 µM). The solubility at 24 h in data set [1] (after 24 hours (balanced)) is 4 µg/mL (≈ 4.63 µM). The “CoQ10 passing from the whole cells to the mitochondria” value in the data set on H9C2 cells is recorded as 4%.

For the origin of these results see patent US9675564B2, “Composition based on ubidecarenone” (Asoltech Srl, priority 2011, dated 2017).
